# The source made the active and inactive calls.
# Columns and labels:
# [1] = target: Ras and Rab interactor 1/Tyrosine-protein kinase ABL1 (Homo sapiens, UniProt P00519+Q13671); format: functional;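 further: biochemical TR-FRET dose-response test measuring inhibition of binding between Rin1 and Abl proteins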
# [2] = target: T1, Heat shock factor protein 1 (Mus musculus, UniProt P38532); assay: enhancement of HSF1-driven luciferase signal – cell-based, NIH3T3, luminescence, dose retest, confirmation (AID 435004); format: functional;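 further: stress induced by proteasome inhibitor MG132 added 30 min after compound; luciferase reporter driven by HSF1 response element in NIH3T3 cells; actives raise luminescence as potentiators of the MG132 stress response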
# T1 sequence (P38532 whole entry): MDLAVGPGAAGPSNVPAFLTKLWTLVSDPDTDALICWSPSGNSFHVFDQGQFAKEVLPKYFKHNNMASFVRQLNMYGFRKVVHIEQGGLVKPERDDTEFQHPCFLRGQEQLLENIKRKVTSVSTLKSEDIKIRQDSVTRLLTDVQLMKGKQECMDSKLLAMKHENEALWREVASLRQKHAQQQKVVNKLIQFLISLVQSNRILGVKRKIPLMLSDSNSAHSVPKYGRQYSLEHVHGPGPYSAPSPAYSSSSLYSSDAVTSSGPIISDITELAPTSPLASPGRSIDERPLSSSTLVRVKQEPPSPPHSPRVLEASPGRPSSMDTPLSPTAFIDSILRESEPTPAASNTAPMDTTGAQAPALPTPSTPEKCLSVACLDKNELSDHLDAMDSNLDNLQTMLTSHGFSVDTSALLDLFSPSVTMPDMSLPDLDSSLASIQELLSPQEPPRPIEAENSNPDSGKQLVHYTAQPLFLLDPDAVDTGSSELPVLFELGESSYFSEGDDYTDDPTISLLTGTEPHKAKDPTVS
# H9c2 = assay: cells; format: functional, cell-based; conditions: Rattus norvegicus, H9c2, Myocardium;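 further: confirmatory concentration-response retest of ultra-high-throughput screening hits for modulation of myocardial damage; cell death induced by hydrogen peroxide oxidative stress; compound pretreatment for 60 min then peroxide exposure for 2 h; potency is for protecting the cells against peroxide damage rather than for killing them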
# [3] = target: 26S proteasome non-ATPase regulatory subunit 14 (Homo sapiens, UniProt O00487); assay: inhibition of proteasome subunit RPN11 – biochemical, fluorescence polarization, uHTS hits, confirmation (AID 602368); format: functional
# [4] = target: 72 kDa type IV collagenase (Homo sapiens, UniProt P08253); assay: Dose Response validation of uHTS RPN11 inhibitor hits using a MMP-2 Fluorescence assay.; format: functional
# Prothrombin = Prothrombin (Bos taurus, UniProt P00735); assay: thrombin protease inhibitors – biochemical, fluorescence polarization, uHTS hits, dose response (AID 602369); format: functional
# [5] = target: T2, Short transient receptor potential channel 4 (Mus musculus, UniProt Q9QUQ5); assay: calcium entry via TRPC4 opening agents – cell-based, HEK293 TRPC4/mu-opioid, Fluo-4 calcium, dose response (AID 434937); format: functional
# T2 sequence (Q9QUQ5 whole entry): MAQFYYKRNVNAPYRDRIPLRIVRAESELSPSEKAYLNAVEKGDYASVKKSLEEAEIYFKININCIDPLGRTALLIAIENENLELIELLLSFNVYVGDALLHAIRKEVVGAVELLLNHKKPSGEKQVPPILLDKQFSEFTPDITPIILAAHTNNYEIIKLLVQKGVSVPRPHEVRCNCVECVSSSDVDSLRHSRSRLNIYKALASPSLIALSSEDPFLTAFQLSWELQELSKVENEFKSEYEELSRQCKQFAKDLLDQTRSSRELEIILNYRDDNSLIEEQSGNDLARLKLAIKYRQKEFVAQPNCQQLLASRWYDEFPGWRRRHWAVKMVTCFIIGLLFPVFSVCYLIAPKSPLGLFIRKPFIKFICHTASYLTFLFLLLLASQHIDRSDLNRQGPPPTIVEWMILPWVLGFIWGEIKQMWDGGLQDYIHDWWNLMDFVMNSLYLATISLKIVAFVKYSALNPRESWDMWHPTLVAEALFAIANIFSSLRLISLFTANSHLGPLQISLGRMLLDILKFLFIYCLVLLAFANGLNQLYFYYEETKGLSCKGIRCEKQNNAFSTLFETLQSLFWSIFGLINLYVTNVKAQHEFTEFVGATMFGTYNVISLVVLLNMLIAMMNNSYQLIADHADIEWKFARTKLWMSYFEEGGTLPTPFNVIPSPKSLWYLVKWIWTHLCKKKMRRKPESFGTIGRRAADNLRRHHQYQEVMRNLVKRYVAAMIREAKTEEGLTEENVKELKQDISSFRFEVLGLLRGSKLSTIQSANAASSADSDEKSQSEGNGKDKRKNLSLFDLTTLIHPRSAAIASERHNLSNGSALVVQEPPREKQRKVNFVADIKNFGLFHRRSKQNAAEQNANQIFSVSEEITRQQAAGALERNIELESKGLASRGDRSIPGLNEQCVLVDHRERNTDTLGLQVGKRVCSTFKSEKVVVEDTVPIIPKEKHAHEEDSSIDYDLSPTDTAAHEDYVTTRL
# [6] = target: DNA repair and recombination protein RAD54-like (Homo sapiens, UniProt Q92698); assay: RAD54 Holliday junction migration blockers – biochemical, fluorescence, cherry-picked samples, dose series, confirmation (AID 651657); format: functional
# [7] = target: T3, DNA repair protein RAD52 homolog (Homo sapiens, UniProt P43351); format: functional, biochemical
# T3 sequence (P43351 whole entry): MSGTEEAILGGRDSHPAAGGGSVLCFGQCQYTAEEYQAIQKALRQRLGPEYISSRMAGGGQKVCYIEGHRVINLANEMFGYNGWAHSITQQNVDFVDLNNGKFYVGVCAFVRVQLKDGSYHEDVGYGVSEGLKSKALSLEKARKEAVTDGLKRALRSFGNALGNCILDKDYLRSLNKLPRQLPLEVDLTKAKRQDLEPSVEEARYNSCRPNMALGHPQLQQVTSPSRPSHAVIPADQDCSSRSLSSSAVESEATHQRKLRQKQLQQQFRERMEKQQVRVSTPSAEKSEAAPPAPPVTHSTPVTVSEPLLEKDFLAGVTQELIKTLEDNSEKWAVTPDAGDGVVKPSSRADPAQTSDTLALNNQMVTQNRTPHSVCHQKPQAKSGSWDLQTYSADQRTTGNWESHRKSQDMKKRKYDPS
# [8] = target: Adenosylmethionine-8-amino-7-oxononanoate aminotransferase (Mycobacterium tuberculosis, UniProt P9WQ81); assay: Mycobacterium tuberculosis BioA enzyme inhibitor Measured in Biochemical System Using Plate Reader - 2163-02_Inhibitor_Dose_CherryPick_Activity.; format: functional, Mycobacterium tuberculosis UT205
# [9] = target: T4, High affinity choline transporter 1 (Homo sapiens, UniProt Q9GZV3); assay: human choline transporter blockers, potency – cell-based, 5-point CRC, membrane potential dye, dose response (AID 504840); format: functional
# T4 sequence (Q9GZV3 whole entry): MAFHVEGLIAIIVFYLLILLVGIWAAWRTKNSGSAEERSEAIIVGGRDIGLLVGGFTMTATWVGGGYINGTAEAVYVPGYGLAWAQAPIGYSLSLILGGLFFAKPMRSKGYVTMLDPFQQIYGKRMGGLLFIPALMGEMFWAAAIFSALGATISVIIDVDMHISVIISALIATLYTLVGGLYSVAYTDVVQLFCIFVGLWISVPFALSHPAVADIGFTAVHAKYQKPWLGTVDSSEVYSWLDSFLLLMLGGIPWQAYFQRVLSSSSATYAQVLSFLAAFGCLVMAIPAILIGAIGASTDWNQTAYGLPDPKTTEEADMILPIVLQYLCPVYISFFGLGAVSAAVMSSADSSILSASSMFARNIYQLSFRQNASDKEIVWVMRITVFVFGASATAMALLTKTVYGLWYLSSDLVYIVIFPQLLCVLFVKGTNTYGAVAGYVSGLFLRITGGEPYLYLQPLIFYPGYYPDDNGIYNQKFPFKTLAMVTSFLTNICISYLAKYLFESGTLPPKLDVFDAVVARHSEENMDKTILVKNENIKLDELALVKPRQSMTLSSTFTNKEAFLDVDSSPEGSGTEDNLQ
# [10] = target: T4, High affinity choline transporter 1; assay: human choline transporter blockers, potency – cell-based, 10-point CRC, membrane potential dye, dose response (AID 588401); format: functional;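 further: membrane potential dye fluorescence of choline-evoked depolarization via CHT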
# Trypsin = Trypsin (Sus scrofa, UniProt P00761); assay: trypsin protease activity blockade – biochemical, quenched peptide fluorescence, cherry-pick, selectivity assay for Rce1 protease inhibitor project, dose response (AID 488789)
# CAAX prenyl protease 2 [11] = target: T5, CAAX prenyl protease 2 (Saccharomyces cerevisiae S288c, UniProt Q03530); format: biochemical
# T5 sequence (Q03530 whole entry): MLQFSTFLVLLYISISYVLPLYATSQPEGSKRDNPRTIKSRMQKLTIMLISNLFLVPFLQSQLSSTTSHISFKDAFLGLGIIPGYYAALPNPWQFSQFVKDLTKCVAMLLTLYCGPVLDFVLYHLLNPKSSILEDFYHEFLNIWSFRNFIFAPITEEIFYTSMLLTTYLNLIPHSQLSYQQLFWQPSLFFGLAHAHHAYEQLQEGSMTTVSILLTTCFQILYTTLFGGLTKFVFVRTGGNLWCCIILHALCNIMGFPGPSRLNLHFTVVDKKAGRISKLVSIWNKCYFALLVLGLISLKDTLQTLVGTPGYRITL
# CAAX prenyl protease 2 [12] = target: T6, CAAX prenyl protease 2 (Homo sapiens, UniProt Q9Y256); assay: inhibition of Ras-converting CAAX protease Rce1 – biochemical, yeast membranes, quenched-peptide fluorescence, cherry-pick, dose response (AID 588849)
# T6 sequence (Q9Y256 whole entry): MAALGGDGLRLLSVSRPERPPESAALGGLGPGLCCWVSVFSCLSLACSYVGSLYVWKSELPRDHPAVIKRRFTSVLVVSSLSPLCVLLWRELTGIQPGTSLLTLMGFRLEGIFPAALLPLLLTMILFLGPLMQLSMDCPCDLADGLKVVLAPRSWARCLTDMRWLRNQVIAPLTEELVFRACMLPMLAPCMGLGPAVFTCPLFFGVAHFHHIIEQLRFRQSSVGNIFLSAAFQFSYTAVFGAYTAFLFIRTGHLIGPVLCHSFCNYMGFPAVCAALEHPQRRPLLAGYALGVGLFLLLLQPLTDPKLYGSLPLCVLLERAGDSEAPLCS
# cells = format: functional
# [13] = inhibition of ARNT PAS-B/TACC3 complex formation – biochemical, AlphaScreen, cherry-picked samples, confirmation (AID 651703); format: functional, Homo sapiens;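 further: His-tagged ARNT PAS-B domain paired with GST-TACC3 E629A dimer coactivator fragment; potency of inhibitors that break up the complex and lower AlphaScreen signal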
# HEK293 = assay: cells; format: functional, cell-based; conditions: Homo sapiens
# [14] = target: T7, Nuclear receptor subfamily 0 group B member 1 (Homo sapiens, UniProt P51843); assay: Luminescence-based cell-based high throughput dose response assay for inhibitors of the orphan nuclear receptor subfamily 0, group B, member 1 (DAX1; NR0B1). [Related pubchem assays (depositor defined):AID504766, AID504790]; format: functional
# T7 sequence (P51843 whole entry): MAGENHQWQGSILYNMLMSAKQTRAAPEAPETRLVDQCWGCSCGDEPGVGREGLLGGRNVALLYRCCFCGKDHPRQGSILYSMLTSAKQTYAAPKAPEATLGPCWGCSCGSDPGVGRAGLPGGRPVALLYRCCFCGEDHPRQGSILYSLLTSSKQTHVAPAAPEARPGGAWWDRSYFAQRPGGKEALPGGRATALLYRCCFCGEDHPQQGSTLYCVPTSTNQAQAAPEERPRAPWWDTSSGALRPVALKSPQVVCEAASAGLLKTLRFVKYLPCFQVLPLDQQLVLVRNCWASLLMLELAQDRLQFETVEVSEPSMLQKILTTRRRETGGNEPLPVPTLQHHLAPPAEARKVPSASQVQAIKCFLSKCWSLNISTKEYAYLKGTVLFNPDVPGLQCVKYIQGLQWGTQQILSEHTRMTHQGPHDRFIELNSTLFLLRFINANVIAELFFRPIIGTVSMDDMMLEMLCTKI
# CHO = CHO cell viability loss, potency – luminescence, cytotoxicity control for TLR9-MyD88 binding inhibitor project, dose response (AID 588339); format: functional, cell-based, hamster; conditions: Cricetulus griseus;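 further: CHO cells stably coexpressing TLR9 and MyD88 fusions from primary screen; compound exposure lasted 48 hours before viability readout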
# Adenosylmethionine-8-amino-7-oxononanoate aminotransferase, sequence (P9WQ81 whole entry): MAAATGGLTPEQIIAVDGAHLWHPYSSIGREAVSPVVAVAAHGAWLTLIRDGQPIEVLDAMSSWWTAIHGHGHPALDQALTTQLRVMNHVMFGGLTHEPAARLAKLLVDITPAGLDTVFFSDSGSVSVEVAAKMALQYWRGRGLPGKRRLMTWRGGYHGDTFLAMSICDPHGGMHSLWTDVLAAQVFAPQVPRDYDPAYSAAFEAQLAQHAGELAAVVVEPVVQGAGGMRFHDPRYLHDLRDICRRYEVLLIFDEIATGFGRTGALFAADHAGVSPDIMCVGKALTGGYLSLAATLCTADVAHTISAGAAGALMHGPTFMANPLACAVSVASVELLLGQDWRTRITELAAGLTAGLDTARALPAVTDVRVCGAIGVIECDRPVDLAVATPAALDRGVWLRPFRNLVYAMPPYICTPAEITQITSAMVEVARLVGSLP
# DNA repair and recombination protein RAD54-like, sequence (Q92698 whole entry): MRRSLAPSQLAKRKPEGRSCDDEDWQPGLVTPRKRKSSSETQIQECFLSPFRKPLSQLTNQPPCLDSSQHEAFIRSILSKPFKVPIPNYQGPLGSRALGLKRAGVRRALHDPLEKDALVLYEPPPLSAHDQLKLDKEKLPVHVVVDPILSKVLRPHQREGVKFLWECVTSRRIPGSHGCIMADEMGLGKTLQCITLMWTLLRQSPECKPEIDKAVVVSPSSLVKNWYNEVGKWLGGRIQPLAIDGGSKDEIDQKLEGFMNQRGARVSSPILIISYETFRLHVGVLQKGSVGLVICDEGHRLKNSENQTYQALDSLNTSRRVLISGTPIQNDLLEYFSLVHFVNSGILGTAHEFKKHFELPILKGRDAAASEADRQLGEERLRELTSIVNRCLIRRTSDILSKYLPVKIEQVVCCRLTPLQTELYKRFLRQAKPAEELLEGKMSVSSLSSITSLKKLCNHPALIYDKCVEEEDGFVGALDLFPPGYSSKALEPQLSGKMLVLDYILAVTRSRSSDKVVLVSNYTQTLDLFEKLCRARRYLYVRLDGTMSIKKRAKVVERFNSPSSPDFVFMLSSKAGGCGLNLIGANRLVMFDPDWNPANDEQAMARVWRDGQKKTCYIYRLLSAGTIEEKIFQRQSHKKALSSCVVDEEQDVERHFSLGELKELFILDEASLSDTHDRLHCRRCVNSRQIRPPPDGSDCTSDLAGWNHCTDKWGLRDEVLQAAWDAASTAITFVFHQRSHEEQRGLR
# 72 kDa type IV collagenase, sequence (P08253 whole entry): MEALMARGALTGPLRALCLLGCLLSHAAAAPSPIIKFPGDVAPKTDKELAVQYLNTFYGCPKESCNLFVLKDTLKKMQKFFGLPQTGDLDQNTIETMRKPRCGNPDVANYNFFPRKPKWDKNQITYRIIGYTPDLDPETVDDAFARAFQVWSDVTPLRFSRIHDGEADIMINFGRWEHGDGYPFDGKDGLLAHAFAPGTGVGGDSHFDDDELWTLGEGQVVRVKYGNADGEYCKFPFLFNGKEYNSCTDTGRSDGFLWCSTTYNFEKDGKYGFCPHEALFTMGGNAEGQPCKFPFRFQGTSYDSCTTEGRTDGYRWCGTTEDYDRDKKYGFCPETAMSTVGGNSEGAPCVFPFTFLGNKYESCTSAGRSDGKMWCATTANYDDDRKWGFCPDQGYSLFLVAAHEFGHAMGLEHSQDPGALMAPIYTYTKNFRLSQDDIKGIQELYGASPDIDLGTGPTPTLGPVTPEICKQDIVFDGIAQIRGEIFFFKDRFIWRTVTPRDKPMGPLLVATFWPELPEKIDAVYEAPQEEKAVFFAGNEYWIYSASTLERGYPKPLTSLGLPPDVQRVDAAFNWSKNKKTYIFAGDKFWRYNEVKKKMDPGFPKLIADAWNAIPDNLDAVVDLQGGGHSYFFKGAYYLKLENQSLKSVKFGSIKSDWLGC
# 26S proteasome non-ATPase regulatory subunit 14, sequence (O00487 whole entry): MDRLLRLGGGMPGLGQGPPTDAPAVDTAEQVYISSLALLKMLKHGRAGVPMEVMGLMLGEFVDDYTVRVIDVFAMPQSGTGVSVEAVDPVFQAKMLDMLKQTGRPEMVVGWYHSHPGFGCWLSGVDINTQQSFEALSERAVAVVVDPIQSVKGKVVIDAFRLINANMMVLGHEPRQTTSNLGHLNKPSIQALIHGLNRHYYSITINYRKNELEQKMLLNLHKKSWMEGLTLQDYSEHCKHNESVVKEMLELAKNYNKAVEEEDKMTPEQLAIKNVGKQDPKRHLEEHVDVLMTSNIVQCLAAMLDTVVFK
# Ras and Rab interactor 1/Tyrosine-protein kinase ABL1, sequence (P00519 whole entry): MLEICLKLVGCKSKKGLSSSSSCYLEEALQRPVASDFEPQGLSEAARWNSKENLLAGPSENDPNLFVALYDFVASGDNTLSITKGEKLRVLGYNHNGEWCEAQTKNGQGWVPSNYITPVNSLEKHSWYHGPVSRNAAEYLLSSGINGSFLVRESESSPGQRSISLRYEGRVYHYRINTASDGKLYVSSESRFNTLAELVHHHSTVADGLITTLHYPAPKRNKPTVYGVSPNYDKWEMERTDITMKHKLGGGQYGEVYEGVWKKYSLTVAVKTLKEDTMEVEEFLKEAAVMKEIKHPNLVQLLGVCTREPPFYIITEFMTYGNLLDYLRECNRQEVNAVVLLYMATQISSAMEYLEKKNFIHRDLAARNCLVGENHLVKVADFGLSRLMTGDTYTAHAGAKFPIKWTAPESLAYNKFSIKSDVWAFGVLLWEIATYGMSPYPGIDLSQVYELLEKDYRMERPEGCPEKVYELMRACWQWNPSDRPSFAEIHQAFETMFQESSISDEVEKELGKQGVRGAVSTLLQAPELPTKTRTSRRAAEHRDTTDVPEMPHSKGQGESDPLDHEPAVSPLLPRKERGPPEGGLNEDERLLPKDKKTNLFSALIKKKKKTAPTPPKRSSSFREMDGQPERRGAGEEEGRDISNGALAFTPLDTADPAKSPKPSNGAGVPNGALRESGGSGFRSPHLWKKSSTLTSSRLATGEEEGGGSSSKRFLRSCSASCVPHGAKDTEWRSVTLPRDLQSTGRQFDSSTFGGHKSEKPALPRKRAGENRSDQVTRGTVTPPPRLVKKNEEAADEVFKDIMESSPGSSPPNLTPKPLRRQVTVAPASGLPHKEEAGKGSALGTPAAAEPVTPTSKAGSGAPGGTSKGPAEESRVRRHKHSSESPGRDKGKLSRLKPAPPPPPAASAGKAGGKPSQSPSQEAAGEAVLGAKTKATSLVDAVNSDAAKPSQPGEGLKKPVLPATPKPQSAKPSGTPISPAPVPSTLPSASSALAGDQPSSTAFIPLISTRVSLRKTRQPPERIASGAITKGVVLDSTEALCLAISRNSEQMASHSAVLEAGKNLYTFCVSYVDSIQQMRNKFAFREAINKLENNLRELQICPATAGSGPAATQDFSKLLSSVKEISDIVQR
# Ras and Rab interactor 1/Tyrosine-protein kinase ABL1, sequence (Q13671 whole entry): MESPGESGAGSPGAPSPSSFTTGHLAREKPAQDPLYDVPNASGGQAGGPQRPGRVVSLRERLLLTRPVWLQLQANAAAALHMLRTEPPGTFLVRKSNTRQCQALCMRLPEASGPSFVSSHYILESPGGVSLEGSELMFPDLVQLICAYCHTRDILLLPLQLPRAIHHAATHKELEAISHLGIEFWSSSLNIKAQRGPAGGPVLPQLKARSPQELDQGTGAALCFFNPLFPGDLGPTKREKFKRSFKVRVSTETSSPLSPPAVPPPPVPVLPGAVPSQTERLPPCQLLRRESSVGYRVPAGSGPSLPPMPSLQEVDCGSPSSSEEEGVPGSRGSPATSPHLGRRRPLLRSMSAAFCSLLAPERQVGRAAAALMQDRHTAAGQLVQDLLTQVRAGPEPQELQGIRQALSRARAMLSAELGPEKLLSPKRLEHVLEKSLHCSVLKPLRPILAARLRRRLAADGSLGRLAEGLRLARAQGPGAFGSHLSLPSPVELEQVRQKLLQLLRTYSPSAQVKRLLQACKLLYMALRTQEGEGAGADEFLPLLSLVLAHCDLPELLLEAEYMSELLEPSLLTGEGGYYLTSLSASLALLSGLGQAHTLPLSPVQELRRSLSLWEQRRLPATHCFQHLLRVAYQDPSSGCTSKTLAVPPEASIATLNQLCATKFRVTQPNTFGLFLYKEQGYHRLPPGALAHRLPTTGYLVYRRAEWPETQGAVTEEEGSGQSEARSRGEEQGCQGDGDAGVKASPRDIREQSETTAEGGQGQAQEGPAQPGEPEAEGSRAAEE
# Trypsin, sequence (P00761 whole entry): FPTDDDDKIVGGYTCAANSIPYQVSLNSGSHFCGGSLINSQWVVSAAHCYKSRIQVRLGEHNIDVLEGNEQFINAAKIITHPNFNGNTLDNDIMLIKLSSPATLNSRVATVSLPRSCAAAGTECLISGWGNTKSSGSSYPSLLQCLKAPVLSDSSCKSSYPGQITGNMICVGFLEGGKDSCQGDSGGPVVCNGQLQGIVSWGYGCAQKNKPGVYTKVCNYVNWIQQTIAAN
smiles,measurement,setting,value
CCCCC(=O)C1CCN(Cc2ccccc2)CC1,IC50,[1],19.4 µM (inactive)
O=c1[nH]n(CC2COC3(CCCCC3)O2)c(=O)c2ccccc12 (stereo not drawn),EC50,[2],79 µM (active)
same,IC50,H9c2,> 79 µM (inactive)
same,IC50,[1],12.5 µM (inactive)
COC(=O)c1ccc(N2NC(=O)/C(=C/c3cc(OC)c(O)c(OC)c3)C2=O)cc1,IC50,[3],18.5 µM (active)
same,IC50,[4],81.6 µM (active)
same,IC50,Prothrombin,27 µM (active)
CCCN(CCC)CCCNC(=O)c1cc2c(-c3ccc(OC)c(OC)c3)nn(C)c2s1,EC50,[5],0.531 µM (active)
same,AC50,[6],9.65 µM (active)
same,AC50,[7],3.41 µM (active)
Cc1cc(C)n2nc(C(=O)Nc3cccnc3)nc2n1,AC50,[8],4.85 µM (active)
COc1ccc(C(=O)C[n+]2cccc(Br)c2)cc1,IC50,[9],4.21 µM (active)
same,IC50,[10],1.19 µM (active)
COc1ccc2c(c1)c1ncn(CCN3CCCCC3)c(=O)c1n2C,AC50,Trypsin,13.1 µM (active)
same,AC50,CAAX prenyl protease 2 [11],13.9 µM (active)
same,AC50,CAAX prenyl protease 2 [12],4.82 µM (active)
same,AC50,[6],35 µM (active)
O=C1CSC(=S)N1N=Cc1ccc(Cl)s1,IC50,[3],59.4 µM (active)
same,IC50,[4],> 100 µM (inactive)
same,IC50,Prothrombin,27.1 µM (active)
COCCn1c(C)cc(C(=O)COC(=O)c2ccc([N+](=O)[O-])o2)c1C,IC50,cells,< 0.1 µM (active)
same,AC50,[13],117 µM (active)
COc1cc(-c2nnc(S)n2C(C)c2ccccc2)cc(OC)c1OC (stereo not drawn),AC50,[8],5.84 µM (active)
O=C(COC(=O)c1[nH]nc2ccccc12)Nc1ccccc1,IC50,HEK293,> 67.5 µM (inactive)
same,IC50,[14],> 67.5 µM (inactive)
CCSc1nnc(NC(=O)C(C)(C(F)(F)F)C(F)(F)F)s1,IC50,[9],3.47 µM (active)
same,IC50,[10],2.82 µM (active)
O=C(NCc1cccc(C(F)(F)F)c1)c1cccc2c1C(=O)c1ccc(N3CCC(Cc4ccccc4)CC3)cc1S2(=O)=O,IC50,CHO,> 49.8 µM (inactive)

# From ChEMBL document CHEMBL1201862, “PubChem BioAssay data set” (2004)
